#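 Grown in 96-well plates, cells were treated for 48 hours with each compound at five concentrations. Insufficient inhibition: endpoint recorded as highest concentration tested. Definition used: TGI = concentration required for complete inhibition of growth.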
# Tests used:
# Test in all cases: growth of human tumour cells (NCI), 48 h
# 786-0 renal = system: 786-0 renal
# A549 NSCLC = system: A549 NSCLC
# T-47D breast = system: T-47D breast
# CCRF-CEM leukemia = system: CCRF-CEM leukemia
# MCF7 breast = system: MCF7 breast
# SNB-75 CNS = system: SNB-75 CNS
# COLO 205 colon = system: COLO 205 colon
# HOP-62 NSCLC = system: HOP-62 NSCLC
# PC-3 prostate = system: PC-3 prostate
# SK-MEL-28 melanoma = system: SK-MEL-28 melanoma
# UACC-257 melanoma = system: UACC-257 melanoma
# NCI-H23 lung = system: NCI-H23 lung
# SK-MEL-5 melanoma = system: SK-MEL-5 melanoma
# MDA-N = system: MDA-N
# CAKI-1 renal = system: CAKI-1 renal
# UACC-62 melanoma = system: UACC-62 melanoma
# SW-620 colon = system: SW-620 colon
# MDA-MB-231 breast = system: MDA-MB-231 breast
# HCT-15 colon = system: HCT-15 colon
# HL-60(TB) leukemia = system: HL-60(TB) leukemia
# DU-145 prostate = system: DU-145 prostate
# RPMI-8226 leukemia = system: RPMI-8226 leukemia
# HT29 colon = system: HT29 colon
# RXF 393 renal = system: RXF 393 renal
# SN12C renal = system: SN12C renal
# SR leukemia = system: SR leukemia
# EKVX NSCLC = system: EKVX NSCLC
# SF-268 CNS = system: SF-268 CNS
# MOLT-4 leukemia = system: MOLT-4 leukemia
# HCC-2998 colon = system: HCC-2998 colon
# MALME-3M melanoma = system: MALME-3M melanoma
# SF-295 CNS = system: SF-295 CNS
# TK-10 renal = system: TK-10 renal
# SK-OV-3 ovarian = system: SK-OV-3 ovarian
# IGROV1 ovarian = system: IGROV1 ovarian
# KM12 colon = system: KM12 colon
# M14 melanoma = system: M14 melanoma
# K-562 leukemia = system: K-562 leukemia
# OVCAR-8 ovarian = system: OVCAR-8 ovarian
# HCT-116 colon = system: HCT-116 colon
# SNB-19 CNS = system: SNB-19 CNS
# OVCAR-4 ovarian = system: OVCAR-4 ovarian
# OVCAR-3 ovarian = system: OVCAR-3 ovarian
# SK-MEL-2 melanoma = system: SK-MEL-2 melanoma
# NCI-H460 lung = system: NCI-H460 lung
# LOX IMVI melanoma = system: LOX IMVI melanoma
# NCI/ADR-RES ovarian = system: NCI/ADR-RES ovarian
# U251 CNS = system: U251 CNS
# OVCAR-5 ovarian = system: OVCAR-5 ovarian
# ACHN renal = system: ACHN renal
# BT-549 breast = system: BT-549 breast
# A498 renal = system: A498 renal
# NCI-H226 lung = system: NCI-H226 lung
# SF-539 CNS = system: SF-539 CNS
# HOP-92 NSCLC = system: HOP-92 NSCLC
# MDA-MB-435 = system: MDA-MB-435
# UO-31 renal = system: UO-31 renal
# NCI-H522 lung = system: NCI-H522 lung
# HS 578T breast = system: HS 578T breast
structure (smiles),measurement,setting,value
COc1ccc(C(=O)/C=C/c2ccc(OCC(=O)N3CCN(c4ccccc4)CC3)cc2)cc1OC,TGI,786-0 renal,> 10 µM
same,TGI,A549 NSCLC,> 10 µM
same,TGI,T-47D breast,> 10 µM
same,TGI,CCRF-CEM leukemia,7.21 µM
same,TGI,MCF7 breast,> 10 µM
same,TGI,SNB-75 CNS,8.75 µM
same,TGI,COLO 205 colon,> 10 µM
same,TGI,HOP-62 NSCLC,> 10 µM
same,TGI,PC-3 prostate,> 10 µM
same,TGI,SK-MEL-28 melanoma,> 10 µM
same,TGI,UACC-257 melanoma,> 10 µM
same,TGI,NCI-H23 lung,5.55 µM
same,TGI,SK-MEL-5 melanoma,> 10 µM
same,TGI,MDA-N,> 10 µM
same,TGI,CAKI-1 renal,> 10 µM
same,TGI,UACC-62 melanoma,> 10 µM
same,TGI,SW-620 colon,> 10 µM
same,TGI,MDA-MB-231 breast,> 10 µM
same,TGI,HCT-15 colon,> 10 µM
same,TGI,HL-60(TB) leukemia,> 10 µM
same,TGI,DU-145 prostate,> 10 µM
same,TGI,RPMI-8226 leukemia,> 10 µM
same,TGI,HT29 colon,> 10 µM
same,TGI,RXF 393 renal,3.86 µM
same,TGI,SN12C renal,> 10 µM
same,TGI,SR leukemia,6.47 µM
same,TGI,EKVX NSCLC,> 10 µM
same,TGI,SF-268 CNS,> 10 µM
same,TGI,MOLT-4 leukemia,7.06 µM
same,TGI,HCC-2998 colon,> 10 µM
same,TGI,MALME-3M melanoma,> 10 µM
same,TGI,SF-295 CNS,> 10 µM
same,TGI,TK-10 renal,> 10 µM
same,TGI,SK-OV-3 ovarian,> 10 µM
same,TGI,IGROV1 ovarian,> 10 µM
same,TGI,KM12 colon,> 10 µM
same,TGI,M14 melanoma,> 10 µM
same,TGI,K-562 leukemia,> 10 µM
same,TGI,OVCAR-8 ovarian,> 10 µM
C#CCOCCCC(=O)O,TGI,786-0 renal,> 100 µM
same,TGI,A549 NSCLC,> 100 µM
same,TGI,T-47D breast,> 100 µM
same,TGI,HCT-116 colon,> 100 µM
same,TGI,CCRF-CEM leukemia,> 100 µM
same,TGI,MCF7 breast,> 100 µM
same,TGI,SNB-75 CNS,> 100 µM
same,TGI,COLO 205 colon,> 100 µM
same,TGI,HOP-62 NSCLC,> 100 µM
same,TGI,PC-3 prostate,> 100 µM
same,TGI,SK-MEL-28 melanoma,> 100 µM
same,TGI,UACC-257 melanoma,> 100 µM
same,TGI,SNB-19 CNS,> 100 µM
same,TGI,OVCAR-4 ovarian,> 100 µM
same,TGI,NCI-H23 lung,> 100 µM
same,TGI,OVCAR-3 ovarian,> 100 µM
same,TGI,SK-MEL-5 melanoma,> 100 µM
same,TGI,SK-MEL-2 melanoma,> 100 µM
same,TGI,MDA-N,> 100 µM
same,TGI,NCI-H460 lung,> 100 µM
same,TGI,CAKI-1 renal,> 100 µM
same,TGI,UACC-62 melanoma,> 100 µM
same,TGI,SW-620 colon,> 100 µM
same,TGI,LOX IMVI melanoma,> 100 µM
same,TGI,MDA-MB-231 breast,> 100 µM
same,TGI,HCT-15 colon,> 100 µM
same,TGI,HL-60(TB) leukemia,> 100 µM
same,TGI,NCI/ADR-RES ovarian,> 100 µM
same,TGI,U251 CNS,> 100 µM
same,TGI,DU-145 prostate,> 100 µM
same,TGI,RPMI-8226 leukemia,> 100 µM
same,TGI,OVCAR-5 ovarian,> 100 µM
same,TGI,ACHN renal,> 100 µM
same,TGI,HT29 colon,> 100 µM
same,TGI,BT-549 breast,> 100 µM
same,TGI,RXF 393 renal,> 100 µM
same,TGI,A498 renal,> 100 µM
same,TGI,SN12C renal,> 100 µM
same,TGI,SR leukemia,> 100 µM
same,TGI,EKVX NSCLC,> 100 µM
same,TGI,MOLT-4 leukemia,> 100 µM
same,TGI,NCI-H226 lung,> 100 µM
same,TGI,SF-295 CNS,> 100 µM
same,TGI,TK-10 renal,> 100 µM
same,TGI,SK-OV-3 ovarian,> 100 µM
same,TGI,IGROV1 ovarian,> 100 µM
same,TGI,M14 melanoma,> 100 µM
same,TGI,SF-539 CNS,> 100 µM
same,TGI,K-562 leukemia,> 100 µM
same,TGI,HOP-92 NSCLC,> 100 µM
same,TGI,OVCAR-8 ovarian,> 100 µM
CNC(=S)N/N=C(\C)c1cc(OC)c(OC)cc1O,TGI,786-0 renal,> 100 µM
same,TGI,A549 NSCLC,> 100 µM
same,TGI,T-47D breast,> 100 µM
same,TGI,HCT-116 colon,> 100 µM
same,TGI,CCRF-CEM leukemia,> 100 µM
same,TGI,MCF7 breast,> 100 µM
same,TGI,SNB-75 CNS,> 100 µM
same,TGI,MDA-MB-435,> 100 µM
same,TGI,COLO 205 colon,> 100 µM
same,TGI,HOP-62 NSCLC,> 100 µM
same,TGI,PC-3 prostate,> 100 µM
same,TGI,SK-MEL-28 melanoma,> 100 µM
same,TGI,UACC-257 melanoma,> 100 µM
same,TGI,SNB-19 CNS,> 100 µM
same,TGI,OVCAR-3 ovarian,> 100 µM
same,TGI,SK-MEL-5 melanoma,> 100 µM
same,TGI,SK-MEL-2 melanoma,> 100 µM
same,TGI,MDA-N,> 100 µM
same,TGI,NCI-H460 lung,> 100 µM
same,TGI,CAKI-1 renal,> 100 µM
same,TGI,UACC-62 melanoma,> 100 µM
same,TGI,SW-620 colon,> 100 µM
same,TGI,UO-31 renal,> 100 µM
same,TGI,MDA-MB-231 breast,> 100 µM
same,TGI,HCT-15 colon,> 100 µM
same,TGI,HL-60(TB) leukemia,> 100 µM
same,TGI,NCI/ADR-RES ovarian,> 100 µM
same,TGI,U251 CNS,> 100 µM
same,TGI,DU-145 prostate,> 100 µM
same,TGI,RPMI-8226 leukemia,> 100 µM
same,TGI,OVCAR-5 ovarian,> 100 µM
same,TGI,ACHN renal,> 100 µM
same,TGI,HT29 colon,> 100 µM
same,TGI,BT-549 breast,> 100 µM
same,TGI,RXF 393 renal,> 100 µM
same,TGI,A498 renal,> 100 µM
same,TGI,SN12C renal,> 100 µM
same,TGI,SR leukemia,> 100 µM
same,TGI,EKVX NSCLC,> 100 µM
same,TGI,SF-268 CNS,> 100 µM
same,TGI,MOLT-4 leukemia,> 100 µM
same,TGI,HCC-2998 colon,> 100 µM
same,TGI,MALME-3M melanoma,> 100 µM
same,TGI,TK-10 renal,> 100 µM
same,TGI,SK-OV-3 ovarian,> 100 µM
same,TGI,IGROV1 ovarian,> 100 µM
same,TGI,KM12 colon,> 100 µM
same,TGI,M14 melanoma,> 100 µM
same,TGI,SF-539 CNS,> 100 µM
same,TGI,K-562 leukemia,> 100 µM
same,TGI,OVCAR-8 ovarian,> 100 µM
CCN(CC)CCC1CCCCN1CC(=O)N1c2ccccc2NC(=O)CC1C (configuration not stated),TGI,786-0 renal,> 100 µM
same,TGI,A549 NSCLC,> 100 µM
same,TGI,T-47D breast,> 100 µM
same,TGI,HCT-116 colon,> 100 µM
same,TGI,CCRF-CEM leukemia,> 100 µM
same,TGI,MCF7 breast,> 100 µM
same,TGI,SNB-75 CNS,11.8 µM
same,TGI,MDA-MB-435,> 100 µM
same,TGI,COLO 205 colon,> 100 µM
same,TGI,HOP-62 NSCLC,> 100 µM
same,TGI,PC-3 prostate,> 100 µM
same,TGI,SK-MEL-28 melanoma,> 100 µM
same,TGI,UACC-257 melanoma,> 100 µM
same,TGI,SNB-19 CNS,> 100 µM
same,TGI,OVCAR-4 ovarian,> 100 µM
same,TGI,NCI-H23 lung,> 100 µM
same,TGI,OVCAR-3 ovarian,> 100 µM
same,TGI,NCI-H522 lung,> 100 µM
same,TGI,SK-MEL-5 melanoma,> 100 µM
same,TGI,SK-MEL-2 melanoma,> 100 µM
same,TGI,MDA-N,> 100 µM
same,TGI,NCI-H460 lung,> 100 µM
same,TGI,CAKI-1 renal,> 100 µM
same,TGI,UACC-62 melanoma,> 100 µM
same,TGI,LOX IMVI melanoma,> 100 µM
same,TGI,UO-31 renal,> 100 µM
same,TGI,MDA-MB-231 breast,> 100 µM
same,TGI,HCT-15 colon,> 100 µM
same,TGI,HL-60(TB) leukemia,> 100 µM
same,TGI,U251 CNS,> 100 µM
same,TGI,DU-145 prostate,> 100 µM
same,TGI,RPMI-8226 leukemia,> 100 µM
same,TGI,OVCAR-5 ovarian,> 100 µM
same,TGI,ACHN renal,> 100 µM
same,TGI,HS 578T breast,> 100 µM
same,TGI,HT29 colon,> 100 µM
same,TGI,RXF 393 renal,> 100 µM
same,TGI,A498 renal,> 100 µM
same,TGI,SN12C renal,> 100 µM
same,TGI,SR leukemia,> 100 µM
same,TGI,EKVX NSCLC,> 100 µM
same,TGI,SF-268 CNS,> 100 µM
same,TGI,MOLT-4 leukemia,> 100 µM
same,TGI,HCC-2998 colon,> 100 µM
same,TGI,MALME-3M melanoma,> 100 µM
same,TGI,NCI-H226 lung,> 100 µM
same,TGI,SF-295 CNS,> 100 µM
same,TGI,TK-10 renal,> 100 µM
same,TGI,SK-OV-3 ovarian,> 100 µM
same,TGI,IGROV1 ovarian,> 100 µM
same,TGI,KM12 colon,> 100 µM
same,TGI,M14 melanoma,> 100 µM
same,TGI,SF-539 CNS,> 100 µM
same,TGI,K-562 leukemia,> 100 µM
same,TGI,HOP-92 NSCLC,> 100 µM
same,TGI,OVCAR-8 ovarian,> 100 µM

# Source: PubChem BioAssay (NCI)
